Experimental data as given in ChEMBL document CHEMBL1123364, “Selective thromboxane synthetase inhibitors. 4. 2-(1H-imidazol-1-ylmethyl) carboxylic acids of benzo[b]furan, benzo[b]thiophene, indole, and naphthalene” (J Med Chem, 1986).

Legend:
[1] = molecular target: T1, Thromboxane-A synthase (Homo sapiens, UniProt P24557); assay: Inhibition of TXA2 synthetase from human platelets
T1 sequence (P24557 whole entry): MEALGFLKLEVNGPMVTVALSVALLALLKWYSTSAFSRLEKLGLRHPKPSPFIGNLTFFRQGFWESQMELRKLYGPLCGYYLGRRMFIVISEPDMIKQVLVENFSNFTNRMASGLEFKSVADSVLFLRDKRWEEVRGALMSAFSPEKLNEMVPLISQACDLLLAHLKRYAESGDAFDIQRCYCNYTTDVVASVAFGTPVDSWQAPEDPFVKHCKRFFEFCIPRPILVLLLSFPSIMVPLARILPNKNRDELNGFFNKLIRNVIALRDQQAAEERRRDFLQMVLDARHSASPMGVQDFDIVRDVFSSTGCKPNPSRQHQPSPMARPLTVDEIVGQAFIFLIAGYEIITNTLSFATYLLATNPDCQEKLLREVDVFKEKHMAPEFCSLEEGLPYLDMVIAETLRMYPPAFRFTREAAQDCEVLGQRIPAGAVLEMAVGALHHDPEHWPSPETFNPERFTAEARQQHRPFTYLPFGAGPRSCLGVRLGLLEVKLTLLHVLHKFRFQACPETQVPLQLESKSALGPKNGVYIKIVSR

[2] = molecular target: T2, Cyclooxygenase (Rattus norvegicus, UniProt P35355+Q63921); assay: Inhibition of cyclooxygenase from RBL-1 cells.; assay type: cell-based
T2 sequence (P35355 whole entry): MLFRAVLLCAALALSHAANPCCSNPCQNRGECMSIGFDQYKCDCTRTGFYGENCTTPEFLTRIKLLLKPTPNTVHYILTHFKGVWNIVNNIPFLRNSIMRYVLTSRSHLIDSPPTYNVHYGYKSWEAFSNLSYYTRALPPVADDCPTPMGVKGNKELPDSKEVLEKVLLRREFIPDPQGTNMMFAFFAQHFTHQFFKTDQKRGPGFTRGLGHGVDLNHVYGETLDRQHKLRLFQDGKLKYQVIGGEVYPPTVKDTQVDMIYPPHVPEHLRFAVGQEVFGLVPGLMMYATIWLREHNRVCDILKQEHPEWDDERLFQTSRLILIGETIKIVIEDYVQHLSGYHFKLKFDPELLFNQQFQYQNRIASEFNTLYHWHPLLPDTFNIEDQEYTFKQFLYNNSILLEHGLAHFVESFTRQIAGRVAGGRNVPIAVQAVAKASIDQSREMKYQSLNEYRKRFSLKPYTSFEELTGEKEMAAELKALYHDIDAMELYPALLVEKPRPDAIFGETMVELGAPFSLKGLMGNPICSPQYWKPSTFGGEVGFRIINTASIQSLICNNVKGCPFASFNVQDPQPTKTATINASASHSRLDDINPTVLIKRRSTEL
T2 sequence (Q63921 whole entry): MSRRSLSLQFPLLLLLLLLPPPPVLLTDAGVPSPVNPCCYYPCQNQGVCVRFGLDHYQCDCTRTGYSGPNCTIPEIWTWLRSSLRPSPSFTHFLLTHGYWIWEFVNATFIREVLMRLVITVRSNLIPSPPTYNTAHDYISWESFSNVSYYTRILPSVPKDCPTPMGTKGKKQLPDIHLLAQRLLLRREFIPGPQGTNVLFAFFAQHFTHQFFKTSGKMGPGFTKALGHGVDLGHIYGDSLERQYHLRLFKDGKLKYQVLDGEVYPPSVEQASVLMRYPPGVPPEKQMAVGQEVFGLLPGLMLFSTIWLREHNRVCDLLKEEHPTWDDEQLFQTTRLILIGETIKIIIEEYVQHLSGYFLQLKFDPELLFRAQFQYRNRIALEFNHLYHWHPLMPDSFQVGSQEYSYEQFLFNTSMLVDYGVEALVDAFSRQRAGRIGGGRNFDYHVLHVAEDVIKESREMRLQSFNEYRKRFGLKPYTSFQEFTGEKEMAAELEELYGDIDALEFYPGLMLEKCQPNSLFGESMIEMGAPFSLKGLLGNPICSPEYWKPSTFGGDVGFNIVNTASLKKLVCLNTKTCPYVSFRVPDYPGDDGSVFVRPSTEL

[3] = Ionisation constant in presence of acid; assay type: ADME
[4] = molecular target: T3, Cytochrome P450 11B1, mitochondrial (Rattus norvegicus, UniProt P15393); assay: Inhibition of rat adrenal 11-beta-hydroxylase
T3 sequence (P15393 whole entry): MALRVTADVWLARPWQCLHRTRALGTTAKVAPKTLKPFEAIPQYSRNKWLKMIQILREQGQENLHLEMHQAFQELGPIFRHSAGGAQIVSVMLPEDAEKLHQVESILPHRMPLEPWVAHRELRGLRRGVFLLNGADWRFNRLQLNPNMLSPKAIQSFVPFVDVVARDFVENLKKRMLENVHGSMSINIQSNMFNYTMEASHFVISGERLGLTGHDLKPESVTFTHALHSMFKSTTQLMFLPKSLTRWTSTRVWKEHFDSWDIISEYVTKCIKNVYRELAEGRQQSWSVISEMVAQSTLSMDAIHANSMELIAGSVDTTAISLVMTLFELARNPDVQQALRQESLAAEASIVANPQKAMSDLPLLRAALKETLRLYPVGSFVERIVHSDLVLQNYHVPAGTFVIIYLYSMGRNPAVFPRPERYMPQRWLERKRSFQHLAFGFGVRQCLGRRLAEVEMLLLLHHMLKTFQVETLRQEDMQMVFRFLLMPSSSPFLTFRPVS

[5] = Ionisation constant in presence of base; assay type: ADME

| SMILES | IC50 [1] [µM] | IC50 [2] [M] | pKa [3] | IC50 [4] [µM] | pKa [5] |
| --- | --- | --- | --- | --- | --- |
| Cc1c(Cn2ccnc2)[nH]c2ccc(C(=O)O)cc12 | 0.037 |  |  |  |  |
| O=C(O)c1ccc2cc(Cn3ccnc3)ccc2c1 | 0.034 |  |  |  |  |
| O=C(O)c1cccc2cc(Cn3ccnc3)ccc12 | 0.071 |  |  |  |  |
| O=C(O)c1ccc2oc(Cn3ccnc3)c(Br)c2c1 | 0.03 |  |  |  |  |
| Cc1c(Cn2ccnc2)oc2ccc(C(=O)O)cc12 | 0.034 | > 0.0002 | 3.91 | 100 | 6.08 |
| CSc1c(Cn2ccnc2)sc2ccc(C(=O)O)cc12 | 0.043 |  |  |  |  |
| Cc1c(Cn2ccnc2)n(C)c2ccc(C(=O)O)cc12 | 0.032 | > 0.0002 | 4.08 |  | 6.32 |
| O=C(O)c1ccc2c(Cl)c(Cn3ccnc3)sc2c1 | 0.04 | > 0.0002 |  |  |  |
| O=C(O)c1ccc2oc(Cn3ccnc3)c(Cl)c2c1 | 0.031 | > 0.0002 |  | > 100 |  |
| O=C(O)c1ccc(OCCn2ccnc2)cc1 [DAZOXIBEN] |  |  |  | > 100 |  |

Continued by falling IC50 [1], values first:

| IC50 [1] [µM] | IC50 [2] [M] | pKa [3] | IC50 [4] [µM] | pKa [5] | SMILES |
| --- | --- | --- | --- | --- | --- |
| 0.027 |  |  | > 100 |  | O=C(O)c1ccc2sc(Cn3ccnc3)c(Br)c2c1 |
| 0.022 | > 0.0002 |  |  |  | O=C(O)c1ccc2sc(Cn3ccnc3)c(Cl)c2c1 |
| 0.018 | > 0.0002 |  |  |  | Cc1c(Cn2ccnc2)sc2cc(C(=O)O)ccc12 |
| 0.017 | > 0.0002 | 3.82 | > 100 | 6.58 | Cc1c(Cn2ccnc2)sc2ccc(C(=O)O)cc12 |
| 0.015 | > 0.0002 | 3.9 | > 100 | 6.34 | O=C(O)c1ccc2sc(Cn3ccnc3)cc2c1 |
| 0.012 |  |  |  |  | O=C(O)c1ccc2oc(Cn3ccnc3)cc2c1 |
